Laboratory results from patent US12102648B2, “Orally-bioavailable nucleoside analogs” (priority 2021, dated 2024).
Read-outs that look alike come from different tables or passages of the source.

Test: in vitro
Format: in vitro ADME
Conditions: human
Method in brief: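 Caco-2 monolayers cultured 19 days on inserts (TEER >600 […]); bidirectional A-to-B and B-to-A transport at 37° C over 90 min, samples quantified by LC/MS/MS. Papp, efflux ratio and recovery calculated; ER >2 flags potential efflux substrates.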

[1] = Caco-2 monolayer, apical to basolateral, 90-minute incubation, read-out: Papp, A-B
[2] = Caco-2 monolayer, basolateral to apical, 90-minute incubation, read-out: Papp, B-A
[3] = Caco-2 monolayer, ER>2 indicates potential efflux transporter substrate, read-out: ER (efflux ratio)

SMILES	Papp A→B at 90 min [1] [×10⁻⁶ cm/s]	Papp B→A at 90 min [2] [×10⁻⁶ cm/s]	efflux ratio at 90 min [3]	Papp A→B at 90 min (Caco-2) [×10⁻⁶ cm/s]	Papp B→A at 90 min (Caco-2) [×10⁻⁶ cm/s]	efflux ratio at 90 min (Caco-2)
CCC(=O)OC[C@H]1O[C@@](C#N)(c2ccc3c(N)ncnn23)[C@H](O)[C@@H]1OC(=O)Cc1ccccc1 [Compound 68, ((2R,3S,4R,5R)-5-(4-aminopyrrolo[2,1-f][1,2,4]triazin-7-yl)-5-cyano-4-hydroxy-3-(2-phenylacetoxy)tetrahydrofuran-2-yl)methyl propionate]	3.3	9.3	2.8			
CC(C)CC(=O)N[C@H](C(=O)OC[C@H]1O[C@@](C#N)(c2ccc3c(N)ncnn23)[C@H](O)[C@@H]1O)C(C)C [Compound 255, [(2R,3S,4R,5R)-5-{4-aminopyrrolo[2,1-f][1,2,4]triazin-7-yl}-5-cyano-3,4-dihydroxyoxolan-2-yl]methyl (2S)-3-methyl-2-(3-methylbutanamido)butanoate]				2.1	5.3	2.5
CCC(=O)O[C@H]1[C@@H](O)[C@](C#N)(c2ccc3c(NC(=O)C(C)C)ncnn23)O[C@@H]1COC(=O)[C@@H](N)C(C)C [Compound 362, ((2R,3S,4R,5R)-5-cyano-4-hydroxy-5-(4-isobutyramidopyrrolo[2,1-f][1,2,4]triazin-7-yl)-3-(propionyloxy)tetrahydrofuran-2-yl)methyl L-valinate]				4.6	6.7	1.5
CC1(CC(=O)OC[C@H]2O[C@@](C#N)(c3ccc4c(N)ncnn34)[C@H](O)[C@@H]2O)CCCCC1 [Compound 273, ((2R,3S,4R,5R)-5-(4-aminopyrrolo[2,1-f][1,2,4]triazin-7-yl)-5-cyano-3,4-dihydroxytetrahydrofuran-2-yl)methyl 2-(1-methylcyclohexyl)acetate]				3.7	3.2	0.85
CNc1nc(N)nc2c1ncn2[C@@H]1O[C@H](COC(C)=O)[C@@H](OC(=O)Cc2ccccc2)[C@@]1(C)F [Compound 210, (2R,3R,4R,5R)-2-(acetoxymethyl)-5-(2-amino-6-(methylamino)-9H-purin-9-yl)-4-fluoro-4-methyltetrahydrofuran-3-yl 2-phenylacetate]	15	5.8	0.38			
N#C[C@@]1(c2ccc3c(N)ncnn23)O[C@H](COC(=O)CC2(c3ccccc3)CCOCC2)[C@@H](O)[C@H]1O [Compound 274, ((2R,3S,4R,5R)-5-(4-aminopyrrolo[2,1-f][1,2,4]triazin-7-yl)-5-cyano-3,4-dihydroxytetrahydrofuran-2-yl)methyl 2-(4-phenyltetrahydro-2H-pyran-4-yl)acetate]				0.85	12	14
CC(C)[C@H](N)C(=O)O[C@H]1[C@@H](O)[C@](C#N)(c2ccc3c(N)ncnn23)O[C@@H]1COC(=O)Cc1ccccc1 [Compound 43, (2R,3S,4R,5R)-5-{4-aminopyrrolo[2,1-f][1,2,4]triazin-7-yl}-5-cyano-4-hydroxy-2-{[(2-phenylacetyl)oxy]methyl}oxolan-3-yl (2S)-2-amino-3-methylbutanoate]	0.74	0.22	0.3			
CC(C)(C)C(=O)OCOC(=O)Nc1ncnn2c([C@]3(C#N)O[C@H](COC(=O)[C@@H](N)C(C)(C)C)[C@@H](O)[C@H]3O)ccc12 [Compound 395, ((2R,3S,4R,5R)-5-cyano-3,4-dihydroxy-5-(4-((((pivaloyloxy)methoxy)carbonyl)amino)pyrrolo[2,1-f][1,2,4]triazin-7-yl)tetrahydrofuran-2-yl)methyl (S)-2-amino-3,3-dimethylbutanoate]				0.01	0.24	19.2
CC(C)[C@H](N)C(=O)OC[C@H]1O[C@@](C#N)(c2ccc3c(NC(=O)[C@@H](N)Cc4ccc(F)cc4)ncnn23)[C@H](O)[C@@H]1O [Compound 94, ((2R,3S,4R,5R)-5-(4-((S)-2-amino-3-(4-fluorophenyl)propanamido)pyrrolo[2,1-f][1,2,4]triazin-7-yl)-5-cyano-3,4-dihydroxytetrahydrofuran-2-yl)methyl L-valinate]				0.07	0.64	9.1
CC(=O)Nc1ncnn2c([C@]3(C#N)O[C@H](COC(=O)Cc4ccccc4)[C@@H](OC(=O)[C@@H](N)C(C)C)[C@H]3O)ccc12 [Compound 344, (2R,3S,4R,5R)-5-(4-acetamidopyrrolo[2,1-f][1,2,4]triazin-7-yl)-5-cyano-4-hydroxy-2-((2-phenylacetoxy)methyl)tetrahydrofuran-3-yl L-valinate]	0.8	9.7	12			
CCC(=O)OC[C@H]1O[C@@](C#N)(c2ccc3c(NC(=O)c4ccccc4)ncnn23)[C@H](O)[C@@H]1O [Compound 107, ((2R,3S,4R,5R)-5-(4-benzamidopyrrolo[2,1-f][1,2,4]triazin-7-yl)-5-cyano-3,4-dihydroxytetrahydrofuran-2-yl)methyl propionate]	2.1	7.5	3.6			
CC(C)[C@H](N)C(=O)OC[C@H]1O[C@@](C#N)(c2ccc3c(NC(=O)c4ccccc4)ncnn23)[C@H](O)[C@@H]1O [Compound 102, ((2R,3S,4R,5R)-5-(4-benzamidopyrrolo[2,1-f][1,2,4]triazin-7-yl)-5-cyano-3,4-dihydroxytetrahydrofuran-2-yl)methyl L-valinate]				0.02	6.7	280
CCCC(=O)Nc1ncnn2c([C@]3(C#N)O[C@H](COC(=O)CC4CCCCC4)[C@@H](OCOC(=O)C(C)(C)C)[C@H]3O)ccc12 [Compound 409, (((2R,3S,4R,5R)-5-(4-butyramidopyrrolo[2,1-f][1,2,4]triazin-7-yl)-5-cyano-2-((2-cyclohexylacetoxy)methyl)-4-hydroxytetrahydrofuran-3-yl)oxy)methyl pivalate]				0.46	0.1	0.22
CNc1nc(N)nc2c1ncn2[C@@H]1O[C@H](COC(=O)Cc2ccccc2)[C@@H](OC(C)=O)[C@@]1(C)F [Compound 217, ((2R,3R,4R,5R)-3-acetoxy-5-(2-amino-6-(methylamino)-9H-purin-9-yl)-4-fluoro-4-methyltetrahydrofuran-2-yl)methyl 2-phenylacetate]	14	6.1	0.45			
CC(C)[C@H](N)C(=O)O[C@H]1[C@@H](O)[C@](C#N)(c2ccc3c(N)ncnn23)O[C@@H]1COC(=O)CC1CCCCC1 [Compound 27, (2R,3S,4R,5R)-5-{4-aminopyrrolo[2,1-f][1,2,4]triazin-7-yl}-5-cyano-2-{[(2-cyclohexylacetyl)oxy]methyl}-4-hydroxyoxolan-3-yl (2S)-2-amino-3-methylbutanoate]				0.1	9.9	100
N#C[C@@]1(c2ccc3c(N)ncnn23)O[C@H](COC(=O)CC2CC2)[C@@H](O)[C@H]1O [Compound 258, [(2R,3S,4R,5R)-5-{4-aminopyrrolo[2,1-f][1,2,4]triazin-7-yl}-5-cyano-3,4-dihydroxyoxolan-2-yl]methyl 2-cyclopropylacetate]				0.09	0.3	3.5
